From patent publication US10047093B2, “Substituted imidazo[1,2-B]pyridazines as protein kinase inhibitors” (Tolero Pharmaceuticals, Inc., priority 2011, dated 2018)

Key:
Pim-1 kinase = Pim-1 kinase (Homo sapiens (Human), UniProt P11309); experiment: Pim-1 kinase inhibition assay (Promega Kinase-Glo); assay type: biochemical; settings: read-out: IC50 on Pim1
Text: One illustrative manner in which Pim-1 kinase activity can be determined is by quantifying the amount of ATP remaining in solution after an in vitro Pim-1 kinase reaction. The Kinase-Glo Assay Kit (Promega, Inc., Madison, Wis.) allows this. The amount of ATP remaining in the solution after the kinase reaction serves as a substrate for the luciferase to catalyze luciferin to oxyluciferin plus one photon of light. Thus, the luminescent signal read by the Luminoskan Ascent Instrument (Thermo Electron Corp., Milford, Mass.) correlates with the amount of ATP present after the kinase reaction and inversely correlates with the amount of kinase activity. […] These assays are set up in duplicate 50 ul volumes in white, flat bottom 96 well plates. […] This solution is incubated at 30 degrees Celsius at 360 rpm for two hours. Following the incubation, 50 ul of Kinase-Glo reagent is added to each well, including all positive and negative control wells, and incubated at room temperature for 15 minutes. […] The IC50 values can then be calculated for each inhibitor tested.

UM-UC-3 = experiment: In vitro viability/proliferation assay, UM-UC-3; assay type: cell-based; settings: Homo sapiens, UMUC3; bladder line UM-UC-3
Procedure: (§1) Adherent or suspension cancer cell lines were seeded at 2000-5000 cells/well in a 96-well plate, or 1000-2000 cells/well in a 384-well plate. Suspension cells were treated with drug the same day as seeding, while adherent cells were incubated overnight at 37° C. in 5% CO2 prior to drug treatment. All cells were treated for 72 hours, then lysed with ATPlite (Perkin Elmer) and measured on an Envision microplate reader. IC50 values were determined using GraphPad Prism software.
(§2) Over 35 cell lines were tested, and the most sensitive cell lines from various indications were selected and verified by multiple EC50 determinations (FIG. 6). […] Anti-proliferative activity using PIM-2 shRNA against FLT3-ITD driven leukemia lines has been observed (Adam (2006) Cancer Res 66:3828-35 data not shown).

MV-4-11 (FLT3-ITD) = experiment: MV-4-11 mouse xenograft; assay type: in vivo; settings: MV-4-11 (FLT3-ITD) established xenografts
Text: (§3) Male and female Nu/Nu mice were purchased from Harlan Sprague Dawley (Indianapolis, Ind.). Female Nu/Nu mice were used for all xenograft evaluations with the exception of the PC-3 xenografts where male Nu/Nu mice were used. Cell lines were expanded in vitro in complete media, and if adherent were harvested by trypsin-EDTA, centrifuged and resuspended in PBS 1:1 with Matrigel (BD Bioscienes). Cells were inoculated subcutaneously in the right hind flank of mice. When tumors reached 100-200 mm^3 by caliper measurement, mice were randomized and dosing of SGI-9481 or vehicle control began and continued every day for 5 days (QDx5) with 2 days off for 18-21 days. Tumor volumes and body weights were determined twice a week, and tumor weights were measured at the completion of the translational xenograft studies.

[1] = tested on: ML-2 cells (wild-type FLT3); experiment: ML-2 mouse xenograft; assay type: in vivo; settings: ML-2 (wild-type FLT3) xenograft
Text: as §3

PC-3 xenograft tumors = experiment: PC-3 established mouse xenograft; assay type: in vivo
Text: as §3, with “When tumors reached 100-200 mm^3 by caliper measurement, mice were randomized and dosing of SGI-9481 or vehicle control began and continued every day for 5 days (QDx5) with 2 days off for 18-21 days.” left out

UM-UC-3 xenograft tumors = experiment: UM-UC-3 established mouse xenograft; assay type: in vivo
Text: as §3, with “When tumors reached 100-200 mm^3 by caliper measurement, mice were randomized and dosing of SGI-9481 or vehicle control began and continued every day for 5 days (QDx5) with 2 days off for 18-21 days.” left out

hematological cell lines = experiment: In vitro viability assay, panel of hematological cell lines; assay type: cell-based; settings: most sensitive hematological cell lines
Procedure: as §1, §2

[2] = 125 mg/kg, less than with 200 mg/kg

Sequence of Pim-1 kinase (P11309 whole entry): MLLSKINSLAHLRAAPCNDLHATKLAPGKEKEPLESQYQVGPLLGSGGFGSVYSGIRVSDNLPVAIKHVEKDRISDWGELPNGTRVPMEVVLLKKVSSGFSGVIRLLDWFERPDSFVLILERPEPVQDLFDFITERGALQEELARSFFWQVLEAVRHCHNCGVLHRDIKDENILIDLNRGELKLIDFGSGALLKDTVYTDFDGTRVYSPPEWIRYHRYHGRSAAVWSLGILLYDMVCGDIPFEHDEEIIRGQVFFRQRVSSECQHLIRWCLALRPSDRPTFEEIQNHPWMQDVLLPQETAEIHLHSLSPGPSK

Work on “4-(((3-(3-(Trifluoromethyl)phenyl)-[1,2,4]triazolo[4,3-a]pyridin-6-yl)amino)methyl)tetrahydro-2H-thiopyran 1,1-dioxide [Compound 8-111]” yielded an IC50 (Pim-1 kinase) greater than 30000 nM.
With CC(C)(O)[C@H]1CC[C@H](Nc2ccc3ncc(-c4cccc(C(F)(F)F)c4)n3n2)CC1 [Compound 8-31] the EC50 (UM-UC-3) was 1000 to 2000 nM, the “tumor growth of established xenografts” value (MV-4-11 (FLT3-ITD)) was “induced regressions” and the tumor growth [1] was “significant tumor growth inhibition”. The tumor growth inhibition (PC-3 xenograft tumors; [2]) was “significant tumor growth inhibition”, the “body weight and gross adverse toxicity” value (PC-3 xenograft tumors; oral dosing of 200 mg/kg) was “no significant changes in body weight or gross adverse toxicity” and the “tumor growth measured by volume (caliper) and by final tumor weight” value (PC-3 xenograft tumors; oral dosing of 200 mg/kg) was “significantly reduced”. The tumor growth inhibition (UM-UC-3 xenograft tumors; [2]) was “significant tumor growth inhibition”, the “body weight and gross adverse toxicity” value (UM-UC-3 xenograft tumors; oral dosing of 200 mg/kg) was “no significant changes in body weight or gross adverse toxicity” and the “tumor growth measured by volume (caliper) and by final tumor weight” value (UM-UC-3 xenograft tumors; oral dosing of 200 mg/kg) was “significantly reduced”. For the same molecule, the EC50 (hematological cell lines) was 1000 to 2000 nM.
With C[C@]1(O)CC[C@H](Nc2ccc3nnc(-c4cccc(OC(F)(F)F)c4)n3c2)CC1 [Compound 8-100, 1-Methyl-4-((3-(3-(trifluoromethoxy)phenyl)-[1,2,4]triazolo[4,3-a]pyridin-6-yl)amino)-trans-cyclohexanol] the IC50 (Pim-1 kinase) was 1640 nM.
